Experimental data taken from patent US9139574B2, “Tumor targeted drug combretastatin A4 derivative” (Nanjing Sanhome Pharmaceutical Co., Ltd., priority 2011, dated 2015).
Like-named read-outs stand apart in the source and are kept apart here.

Experiments:
K562 = experiment: MTT assay of anti-tumor activity, K562; assay type: cell-based; details: Homo sapiens, K562, 72 h, K562 cells
Method: (§1) The cells were digested and counted. The cell suspension was prepared in a concentration of 5×10^4 cells/ml. 100 μL of the cell suspension per well was added into 96-well plates (5×10^3 cells per well). The 96-well plates were placed in a 5% CO2 incubator at 37° C. for 24 hours. The drugs were diluted with the complete medium to the desired concentrations. 100 μL of the corresponding drug-containing medium was added into each well. Negative control group, vehicle control group and positive control group were set. The 96-well plates were placed in 5% CO2 incubator at 37° C. for 72 hours. The 96-well plates were subjected to a MTT assay, and measured OD value at λ=490 nm. The measurement procedure comprises adding 20 μL MTT (5 mg/ml) for each well, incubating for 4 hours in an incubator, discarding the medium, dissolving by adding 150 μL DMSO into each well, mixing uniformly by rocking gently for 10 minutes on a shaker, reading OD value of each well in a microplate reader at λ=490 nm. The inhibition rate was calculated, the results were recorded, and the anti-tumor activity was assessed.

MCF-7 = experiment: MTT assay of anti-tumor activity, MCF-7; assay type: cell-based; details: Homo sapiens, MCF7, 72 h, MCF-7 cells
Method: as §1

HCT-116 = experiment: MTT assay of anti-tumor activity, HCT-116; assay type: cell-based; details: Homo sapiens, HCT-116, 72 h, HCT-116 cells
Method: as §1

NCI-H460 = experiment: MTT assay of anti-tumor activity, NCI-H460; assay type: cell-based; details: Homo sapiens, NCI-H460, 72 h, NCI-H460 cells
Method: as §1

tubulin = experiment: Inhibitory activity on tubulin polymerization (kit BK011P, Cytoskeleton); assay type: biochemical; details: 37° C., 60 minutes, fluorescence, Vmax
Method: The compounds were formulated into six different concentrations (0.03, 0.3, 0.9, 3, 9, 30 μM). The tubulin polymerization assay kit (Cat. # BK011P, Cytoskeleton) was used for testing. The samples were incubated at 37° C. for 60 minutes, and then fluorescence was collected using Gemini EM Fluorescence Microplate Reader collected at 410-460 nm. Vmax was calculated using SOFTMAX® PRO microplate data acquisition & analysis software. The tubulin inhibition (IC50) of the compound was calculated using GRAPHPAD PRISM® v5.01 graphing and statistics software.

[1] = Pharmacokinetics of Compound C128 liposome in rats; assay type: in vivo; details: C128 liposomes, 10 mg/kg tail vein injection, plasma, non-compartmental; for Vd: male, SD, 10 mg/kg
Method: C128 liposomes: (The liposome was prepared according to the conventional method in the pharmaceutical field, particle size 62.6 nm, polydispersity 0.532).
SD male rats, with average weight of 200 g.
Chromatographic conditions: LC-20A high performance liquid chromatography, SPD-20A variable wavelength UV detector (Shimadzu Corporation, Japan); C18 pre-column; mobile phase: methanol/water (65/35, v/v); flow rate 1 mL/min; detection wavelength 283 nm; column temperature 40° C.
The blood was collected from the orbital sinus of rats and centrifuged for 10 minutes at 3000 r/min, and the plasma was separated. 200 μL of the plasma was accurately sampled, and placed in 1.5 mL EP tube. 600 μL acetonitrile was added. The tube was vortexed for 3 minutes, and centrifuged for 10 minutes at 16000 r/min. 20 μL supernatant was taken for injection of HPLC determination. Chromatograms and peak area were recorded.
Blank plasma (280 μL) was accurately pipetted, and 20 μL of standard solutions of different concentrations of the drug was added to obtain the biological samples of different concentrations of the drug. The samples were treated and measured according to the aforementioned “Processing of the biological samples”. The chromatogram and the peak area were recorded. Linear regression was made by peak area A v.s concentration C (μg/mL) to obtain the standard working curve of Compound C128 in the biological samples.
Three male rats were used, and administered via tail vein injection at a dose of 10 mg/kg. The blood was taken via the orbital sinus after administration of 5 min, 15 min, 30 min, 1 h, 2 h, 4 h, 6 h, 8 h, 10 h, respectively. The samples were treated and measured according to the aforementioned “Processing of the biological samples”. The chromatogram and the peak area were recorded. The measured amount, namely, the drug concentration in plasma, was calculated by putting the peak area of the drug into the standard working curve equation.
The time curve of the drug in plasma was drawn—the area under the plasma drug concentration-time curve (AUC) was calculated by the Log trapezoidal method.

IC50 (K562): 1.9 nM | IC50 (MCF-7): 1 nM | IC50 (HCT-116): 110 nM | IC50 (NCI-H460): 92 nM | IC50 (tubulin): 590 nM | AUMC0-inf—obs ([1]; SD male rats): 7.569 μg/ml*h^2 | Lambda—z ([1]; SD male rats): 0.833 h⁻¹ | Vd ([1]; rat, iv, read-out: Vss—obs): 1.29 L/kg | Vd ([1]; rat, iv, read-out: Vz—obs): 1.57 L/kg | AUC(0-t) ([1]; rat, iv, SD male rats): 7280 ng·h/mL | C0 ([1]; rat, iv, SD male rats): 20400 ng/mL | Cmax ([1]; rat, iv, SD male rats): 14200 ng/mL | Tmax ([1]; rat, iv, SD male rats): 4.98 min | half-life ([1]; rat, iv, SD male rats): 50 min | AUC(0-inf) ([1]; rat, iv, SD male rats, read-out: AUC0-inf—obs): 7770 ng·h/mL | clearance ([1]; rat, iv, SD male rats, read-out: Cl—obs (converted)): 21.7 mL/min/kg | MRT inf ([1]; rat, iv, SD male rats, read-out: MRT0-inf—obs): 58.9 min | melting point: 127.1 to 128.9 °C
SMILES: COc1cc(OC)cc(-c2nc[nH]c2-c2ccc(OC)c(F)c2)c1 [Compound C128, 4-(3,5-dimethoxyphenyl)-5-(3-fluoro-4-methoxyphenyl)imidazole]
